According to patent publication US9790252B2, “2-fluorinated riboses and arabinoses and methods of use and synthesis” (CORNELL UNIVERSITY, priority 2009, dated 2017):

Test system: HEK293 cells
Assay: Ribo-F-NR dose response in HEK293 cells (MTT)
Assay type: cell-based
Conditions: 12 hours; for absorbance: 570 nm
Method: 1. HEK293 cells were seeded in 96-well plate at a density of 10,000 cells/well the day before the experiment starts;
2. After the cells reach 50˜60% confluency, media was taken out, and 100 μL of fresh media was added to each well;
3. Ribo-F-NR (stock concentration=5.53 mM) were plated at 11, 22, 27, 44, 55, 83 and 111 μM (in triplicates) concentrations;
4. After 12 hours' incubation at 37° C., the media was taken out, 100 μL of fresh media was added to each well along with 20 μL of 5 mg/mL of MTT solution (in PBS);
5. After 1.5 hours' incubation at 37° C., media was taken out and 100 μL of DMSO was added to each well, the plate was mixed on shaker for 5 mins;
6. Absorbance was measured at 570 nm.

NC(=O)c1ccc[n+]([C@@H]2O[C@H](CO)C(O)[C@@H]2F)c1 (stereo partly drawn) [ribo-F-NR, 1-(2-deoxy-2-fluoro-D-ribofuranosyl)-nicotinamide] gave a relative viability (HEK293, 11 μM) of 0.8067, an absorbance (HEK293, 11 μM) of 0.1041 and a relative viability (HEK293, 22 μM) of 0.652. The absorbance (HEK293, 22 μM) was 0.08411, the relative viability (HEK293, 27 μM) was 0.4806 and the absorbance (HEK293, 27 μM) was 0.062. It also gave a relative viability (HEK293, 44 μM) of 0.2539, an absorbance (HEK293, 44 μM) of 0.03275 and a relative viability (HEK293, 55.3 μM) of 0.1163. For the same compound, the absorbance (HEK293, 55.3 μM) was 0.015, the relative viability (HEK293, 83 μM) was 0.04651 and the absorbance (HEK293, 83 μM) was 0.006. It also gave a relative viability (HEK293, 111 μM) of 0.008358 and an absorbance (HEK293, 111 μM) of 0.001078.
